This passage reports Ki results from patent US8841337B2, “Compounds useful as inhibitors of ATR kinase” (Vertex Pharmaceuticals Incorporated, priority 2011, dated 2014).

This experiment concerns the target T1, full-length ATR (Homo sapiens, UniProt Q13535).
T1 construct: Assays were carried out at 25° C. in the presence of 5 nM full-length ATR
As to the kind of experiment: ATR Inhibition Assay (radioactive-phosphate incorporation). The format is biochemical. The settings on record: Ki(app); 5 nM full-length ATR, 10 μM [γ-33P]ATP, 800 μM target peptide, 25° C. The procedure: Compounds were screened for their ability to inhibit ATR kinase using a radioactive-phosphate incorporation assay. Assays were carried out in a mixture of 50 mM Tris/HCl (pH 7.5), 10 mM MgCl2 and 1 mM DTT. Final substrate concentrations were 10 μM [γ-33P]ATP (3 mCi 33P ATP/mmol ATP, Perkin Elmer) and 800 μM target peptide (ASELPASQPQPFSAKKK).
Assays were carried out at 25° C. in the presence of 5 nM full-length ATR. An assay stock buffer solution was prepared containing all of the reagents listed above, with the exception of ATP and the test compound of interest. 13.5 μL of the stock solution was placed in a 96 well plate followed by addition of 2 μL of DMSO stock containing serial dilutions of the test compound (typically starting from a final concentration of 15 μM with 3-fold serial dilutions) in duplicate (final DMSO concentration 7%). The plate was pre-incubated for 10 minutes at 25° C. and the reaction initiated by addition of 15 μL [γ-33P]ATP (final concentration 10 μM).
The reaction was stopped after […] by the addition of 30 μL 0.1M phosphoric acid containing 2 mM ATP. […]
After removing mean background values for all of the data points, Ki(app) data were calculated from non-linear regression analysis of the initial rate data using the Prism software package (GraphPad Prism version 3.0cx for Macintosh, GraphPad Software, San Diego Calif., USA).

T1 sequence (Q13535 whole entry): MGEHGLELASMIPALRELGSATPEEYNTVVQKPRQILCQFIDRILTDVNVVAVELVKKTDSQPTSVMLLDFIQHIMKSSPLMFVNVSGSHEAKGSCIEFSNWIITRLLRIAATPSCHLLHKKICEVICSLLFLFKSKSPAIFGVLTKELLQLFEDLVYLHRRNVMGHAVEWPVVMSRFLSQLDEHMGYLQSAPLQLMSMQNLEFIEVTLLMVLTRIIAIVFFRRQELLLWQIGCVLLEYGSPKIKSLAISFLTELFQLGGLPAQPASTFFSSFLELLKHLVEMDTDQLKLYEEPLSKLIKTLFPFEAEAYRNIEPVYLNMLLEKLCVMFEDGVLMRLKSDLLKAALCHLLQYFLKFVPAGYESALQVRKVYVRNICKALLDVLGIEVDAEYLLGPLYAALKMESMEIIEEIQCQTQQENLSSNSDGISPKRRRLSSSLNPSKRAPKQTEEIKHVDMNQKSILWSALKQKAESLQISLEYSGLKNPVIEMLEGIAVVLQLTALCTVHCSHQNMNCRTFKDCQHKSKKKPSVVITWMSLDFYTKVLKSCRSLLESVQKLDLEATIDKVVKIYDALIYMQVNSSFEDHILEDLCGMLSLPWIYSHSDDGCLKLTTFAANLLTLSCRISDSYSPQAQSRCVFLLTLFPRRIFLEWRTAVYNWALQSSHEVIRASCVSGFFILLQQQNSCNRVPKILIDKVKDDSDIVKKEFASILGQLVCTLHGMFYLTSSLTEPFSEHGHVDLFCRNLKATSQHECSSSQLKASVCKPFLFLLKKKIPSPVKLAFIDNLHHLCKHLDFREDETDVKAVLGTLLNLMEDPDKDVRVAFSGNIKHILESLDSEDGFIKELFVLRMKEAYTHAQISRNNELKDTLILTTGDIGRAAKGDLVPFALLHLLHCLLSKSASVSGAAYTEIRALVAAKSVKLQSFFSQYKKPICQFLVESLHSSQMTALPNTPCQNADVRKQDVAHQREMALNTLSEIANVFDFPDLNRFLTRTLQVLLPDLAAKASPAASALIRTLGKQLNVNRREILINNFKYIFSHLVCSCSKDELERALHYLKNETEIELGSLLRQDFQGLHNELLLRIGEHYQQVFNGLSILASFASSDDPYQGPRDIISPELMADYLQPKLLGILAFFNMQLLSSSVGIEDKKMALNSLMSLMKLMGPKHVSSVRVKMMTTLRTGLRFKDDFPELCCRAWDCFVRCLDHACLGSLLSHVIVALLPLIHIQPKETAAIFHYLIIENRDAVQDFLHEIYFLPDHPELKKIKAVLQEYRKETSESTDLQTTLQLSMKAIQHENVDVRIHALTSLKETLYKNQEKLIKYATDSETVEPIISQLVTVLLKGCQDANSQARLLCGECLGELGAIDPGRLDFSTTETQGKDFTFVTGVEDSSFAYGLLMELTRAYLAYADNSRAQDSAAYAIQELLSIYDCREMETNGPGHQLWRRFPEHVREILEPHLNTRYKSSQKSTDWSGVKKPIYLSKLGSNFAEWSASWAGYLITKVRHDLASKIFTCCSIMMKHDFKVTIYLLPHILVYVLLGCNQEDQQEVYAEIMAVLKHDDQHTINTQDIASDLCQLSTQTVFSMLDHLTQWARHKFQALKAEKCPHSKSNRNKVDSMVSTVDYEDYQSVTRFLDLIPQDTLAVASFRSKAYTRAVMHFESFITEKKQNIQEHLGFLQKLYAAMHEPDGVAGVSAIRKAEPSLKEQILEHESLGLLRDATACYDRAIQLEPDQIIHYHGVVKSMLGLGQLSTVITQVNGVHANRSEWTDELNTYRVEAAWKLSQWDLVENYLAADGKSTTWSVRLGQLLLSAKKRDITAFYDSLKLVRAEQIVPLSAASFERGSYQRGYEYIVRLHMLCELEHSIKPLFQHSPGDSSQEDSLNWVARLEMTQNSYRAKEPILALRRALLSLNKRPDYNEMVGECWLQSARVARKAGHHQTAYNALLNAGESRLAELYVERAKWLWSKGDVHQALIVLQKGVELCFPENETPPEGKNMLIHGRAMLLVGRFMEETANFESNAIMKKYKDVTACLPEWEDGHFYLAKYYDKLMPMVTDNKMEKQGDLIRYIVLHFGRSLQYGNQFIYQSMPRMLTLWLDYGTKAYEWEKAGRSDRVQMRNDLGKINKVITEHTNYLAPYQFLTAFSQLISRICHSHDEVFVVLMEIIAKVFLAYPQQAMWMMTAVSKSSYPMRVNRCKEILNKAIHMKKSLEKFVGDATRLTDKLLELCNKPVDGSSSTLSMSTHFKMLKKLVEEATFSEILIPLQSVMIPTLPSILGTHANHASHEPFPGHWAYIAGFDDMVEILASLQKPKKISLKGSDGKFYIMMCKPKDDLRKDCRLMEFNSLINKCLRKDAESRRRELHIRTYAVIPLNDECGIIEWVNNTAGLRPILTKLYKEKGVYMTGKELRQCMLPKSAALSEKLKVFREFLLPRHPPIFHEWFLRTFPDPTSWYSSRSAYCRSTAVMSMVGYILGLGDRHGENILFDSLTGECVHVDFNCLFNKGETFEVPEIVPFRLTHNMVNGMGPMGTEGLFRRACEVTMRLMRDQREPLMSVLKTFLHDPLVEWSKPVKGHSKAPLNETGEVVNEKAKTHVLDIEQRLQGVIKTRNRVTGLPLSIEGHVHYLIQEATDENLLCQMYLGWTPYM

As for `CC(C)S(=O)(=O)c1ccc(-c2cnc(N)c(-c3cc(-c4ccccc4)[nH]n3)n2)cc1` [Compound I-1, 5-(4-(isopropylsulfonyl)phenyl)-3-(5-phenyl-1H-pyrazol-3-yl)pyrazin-2-amine], the Ki turned out to be 2.86 nM.
The same measure for `CC(C)S(=O)(=O)c1ccc(-c2cnc(N)c(-c3ncc(-c4ccccc4)o3)n2)cc1` [Compound I-2, 5-(4-(isopropylsulfonyl)phenyl)-3-(5-phenyloxazol-2-yl)pyrazin-2-amine]: 4.03 nM.
